Data published in publication PMC9226124, “Macrocycle-stabilization of its interaction with 14-3-3 increases plasma membrane localization and activity of CFTR” (Nature Communications, 2022).
Several values for one entry are separate records, joined by “and”; a condition that tells them apart may be missing. Equal values may be shown once.

What was measured:
[1] = target: T1, 14-3-3β/CFTRpS753pS768 complex (Homo sapiens, UniProt P13569+P31946); assay: Dose-response fluorescence polarization (FP) assay, compound titration; format: binding; conditions: for FP signal: With 14-3-3
T1 construct: His6 (cleaved yes); made in house; peptide synthetic
Outline: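 Compounds were titrated in two-fold dilutions against 10 μM 14-3-3β and FITC-CFTR pS753pS768 peptide (100 nM or 10 nM). Buffer: 10 mM HEPES pH 7.4, 150 mM NaCl, 0.1% Tween20, 1 mg/mL BSA. Polarization was read at ex 485/em 535 nm, and EC50 was derived from a four-parameter variable-slope fit.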

[2] = target: T1, 14-3-3β/CFTRpS753pS768 complex; assay: FP assay, 14-3-3β titration at constant compound concentration (apparent KD); format: binding; conditions: for FP signal, 14-3-3β titration: replicates
Description: FC-A (100 µM) was added as a positive control and DMSO as the negative control. […] Background polarization was subtracted from all values, n = 3 technical replicates. […] Source data are provided as a Source Data file. […]
The FITC-labeled peptides were dissolved in FP buffer (10 mM HEPES pH 7.4, 150 mM NaCl, 0.1% Tween20, 1 mg/mL BSA) to a final concentration of 100 nM or 10 nM. […] The dilution series were made in 384 Corning Black Round Bottom well plates and their polarization was measured with a Tecan Infinite F500 plate reader (ex. = 485 nm, em. = 535 nm). The method of fitting of the curves was: “log(agonist) vs. response – Variable slope (four parameters)” from GraphPad Prism. The equation is Y = Bottom + (Top-Bottom)/(1 + 10^((LogEC50-X)*HillSlope)).
from the hit validation library.
f the compound, 100 µM FC-A, or both compound and FC-A, 100 µM each. Background polarization was subtracted f
rom all values, n=3 technical replicates.
Source data are provided as a Source Data file.

T1 sequence (P31946 whole entry): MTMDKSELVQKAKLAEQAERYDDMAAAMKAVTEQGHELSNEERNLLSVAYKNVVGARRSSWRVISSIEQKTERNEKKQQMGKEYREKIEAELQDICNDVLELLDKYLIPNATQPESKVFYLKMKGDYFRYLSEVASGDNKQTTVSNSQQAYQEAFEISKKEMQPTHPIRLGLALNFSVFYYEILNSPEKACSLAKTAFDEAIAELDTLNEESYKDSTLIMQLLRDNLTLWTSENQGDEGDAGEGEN
T1 sequence (P13569 747-774 limits assumed): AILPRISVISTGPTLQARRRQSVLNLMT

N=C(N)NCCCC1NC(=O)C(CCC(N)=O)NC(=O)C(CCCNC(=N)N)NC(=O)C2Cc3ccccc3CN2Cc2cccc(c2)-c2ccccc2CNC1=O (stereo not shown) [CY007493] gave an EC50 ([1]; 14-3-3β 10 μM, labeled CFTRpS753pS768 100 nM, read-out: EC50) of 637 µM, an FP signal ([1]; compound 324.2 pM) of 2 and an FP signal ([1]; compound 648.5 pM) of 1. It also gave an FP signal ([1]; compound 1.297e-9 M) of 2, an FP signal ([1]; compound 2.59399e-9 M) of 3 and an FP signal ([1]; compound 5.18799e-9 M) of 3. It also gave an FP signal ([1]; compound 1.0376e-8 M) of 3, an FP signal ([1]; compound 2.0752e-8 M) of 3 and an FP signal ([1]; compound 4.15039e-8 M) of 3. It also gave an FP signal ([1]; compound 8.30078e-8 M) of 2, an FP signal ([1]; compound 1.66016e-7 M) of 5 and an FP signal ([1]; compound 3.32031e-7 M) of 4. For the same compound, the FP signal ([1]; compound 6.64062e-7 M) was 3, the FP signal ([1]; compound 1.32813e-6 M) was 4 and the FP signal ([1]; compound 2.65625e-6 M) was 5. The FP signal ([1]; compound 5.3125e-6 M) was 6, the FP signal ([1]; compound 1.0625e-5 M) was 4 and the FP signal ([1]; compound 2.125e-5 M) was 10. It also gave an FP signal ([1]; compound 4.25e-5 M) of 18, an FP signal ([1]; compound 8.5e-5 M) of 37 and an FP signal ([1]; compound 0.00034 M) of 117. The FP signal ([1]; compound 0.00068 M) was 184, the FP signal ([1]; compound […]) was 71 and the “FP signal, 14-3-3β titration” value ([2]; 14-3-3β 1.90735e-9 M, FC-A + CY compound) was 2 and 4 and 0. For the same compound, the “FP signal, 14-3-3β titration” value ([2]; 14-3-3β 1.90735e-9 M, compound 100 μM) was -2, the “FP signal, 14-3-3β titration” value ([2]; 14-3-3β 3.8147e-9 M, FC-A + CY compound) was 2 and 1 and -1 and the “FP signal, 14-3-3β titration” value ([2]; 14-3-3β 3.8147e-9 M, compound 100 μM) was 2 and 3 and 1. For the same compound, the “FP signal, 14-3-3β titration” value ([2]; 14-3-3β 7.62939e-9 M, FC-A + CY compound) was 2 and 1 and 0, the “FP signal, 14-3-3β titration” value ([2]; 14-3-3β 7.62939e-9 M, compound 100 μM) was 1 (2×) and 4 and the “FP signal, 14-3-3β titration” value ([2]; 14-3-3β 1.52588e-8 M, FC-A + CY compound) was 7 and 4 and 6. For the same compound, the “FP signal, 14-3-3β titration” value ([2]; 14-3-3β 1.52588e-8 M, compound 100 μM) was 5 (2×) and 3, the “FP signal, 14-3-3β titration” value ([2]; 14-3-3β 3.05176e-8 M, FC-A + CY compound) was 3 and 4 and 5 and the “FP signal, 14-3-3β titration” value ([2]; 14-3-3β 3.05176e-8 M, compound 100 μM) was 3 and 1 (2×). The “FP signal, 14-3-3β titration” value ([2]; 14-3-3β 6.10352e-8 M, FC-A + CY compound) was 6 and 9 (2×), the “FP signal, 14-3-3β titration” value ([2]; 14-3-3β 6.10352e-8 M, compound 100 μM) was 5 and 2 (2×) and the “FP signal, 14-3-3β titration” value ([2]; 14-3-3β 1.2207e-7 M, FC-A + CY compound) was 10 and 5 and 8. For the same compound, the “FP signal, 14-3-3β titration” value ([2]; 14-3-3β 1.2207e-7 M, compound 100 μM) was 3 and 6 and 2, the “FP signal, 14-3-3β titration” value ([2]; 14-3-3β 2.44141e-7 M, FC-A + CY compound) was 16 and 15 and 11 and the “FP signal, 14-3-3β titration” value ([2]; 14-3-3β 2.44141e-7 M, compound 100 μM) was 7 and 3 and 1. The “FP signal, 14-3-3β titration” value ([2]; 14-3-3β 4.88281e-7 M, FC-A + CY compound) was 18 and 25 and 20, the “FP signal, 14-3-3β titration” value ([2]; 14-3-3β 4.88281e-7 M, compound 100 μM) was 9 and 4 (2×) and the “FP signal, 14-3-3β titration” value ([2]; 14-3-3β 9.76563e-7 M, FC-A + CY compound) was 36 and 40 and 38. For the same compound, the “FP signal, 14-3-3β titration” value ([2]; 14-3-3β 9.76563e-7 M, compound 100 μM) was 9 and 11 and 10, the “FP signal, 14-3-3β titration” value ([2]; 14-3-3β 1.95313e-6 M, FC-A + CY compound) was 52 and 57 and 55 and the “FP signal, 14-3-3β titration” value ([2]; 14-3-3β 1.95313e-6 M, compound 100 μM) was 11 (2×) and 13. The “FP signal, 14-3-3β titration” value ([2]; 14-3-3β 3.90625e-6 M, FC-A + CY compound) was 75 and 77 and 73, the “FP signal, 14-3-3β titration” value ([2]; 14-3-3β 3.90625e-6 M, compound 100 μM) was 25 and 27 and 24 and the “FP signal, 14-3-3β titration” value ([2]; 14-3-3β 7.8125e-6 M, FC-A + CY compound) was 105 (2×) and 102. The “FP signal, 14-3-3β titration” value ([2]; 14-3-3β 7.8125e-6 M, compound 100 μM) was 44 and 43 and 34, the “FP signal, 14-3-3β titration” value ([2]; 14-3-3β 1.5625e-5 M, FC-A + CY compound) was 123 and 125 and 121 and the “FP signal, 14-3-3β titration” value ([2]; 14-3-3β 1.5625e-5 M, compound 100 μM) was 59 and 58 and 51. The “FP signal, 14-3-3β titration” value ([2]; 14-3-3β 3.125e-5 M, FC-A + CY compound) was 141 (2×) and 139, the “FP signal, 14-3-3β titration” value ([2]; 14-3-3β 3.125e-5 M, compound 100 μM) was 76 (2×) and 79 and the “FP signal, 14-3-3β titration” value ([2]; 14-3-3β 6.25e-5 M, FC-A + CY compound) was 152 and 151 and 156. For the same compound, the “FP signal, 14-3-3β titration” value ([2]; 14-3-3β 6.25e-5 M, compound 100 μM) was 97 (2×) and 95, the “FP signal, 14-3-3β titration” value ([2]; 14-3-3β 0.000125 M, FC-A + CY compound) was 161 and 159 and 162 and the “FP signal, 14-3-3β titration” value ([2]; 14-3-3β 0.000125 M, compound 100 μM) was 113 and 114 and 116. For the same compound, the “Fluorescence polarization signal, 14-3-3β titration” value (“Fluorescence polarization signal” below) ([2]; CY compound (100 μM), 14-3-3β concentration 0.00025 M) was 132 and 131 and 127, the “Fluorescence polarization signal” value ([2]; CY compound (100 μM), 14-3-3β concentration 0.0005 M) was 146 and 152 and the “Fluorescence polarization signal” value ([2]; FC-A + CY compound, 14-3-3β concentration 0.00025 M) was 166 and 162. For the same compound, the “Fluorescence polarization signal” value ([2]; FC-A + CY compound, 14-3-3β concentration 0.0005 M) was 175 and 173 and 177.
